For five molecules, EC50 results are on record in patent US20250320252A1 (The Scripps Research Institute, priority 2021, published 2025).

Where two headings read alike, the source gives them in different places. Numbered stars: 1 amine (or outer) side, 2 acyl side, 3 side chain; on linkers, the order of the positions; unused ones are H or OH. Bridge positions count the residues as written; N and C are the ends. Square brackets hold non-standard residues; d marks the D form. Peptide text beside a SMILES is read from it. X2 = O=C(O)CCCCCCCCCCCCCCCCCCC(=O)N[C@@H](CCCCNC(=O)CCOCCOCCNC(=O)CCOCCOCCNC(=O)CCC(=O)N(CCNC(=O)C[*:1])CCNC(=O)C[*:2])C(=O)O; Aib = CC(C)(N)C(=O)O

The target in one assay is T1, human GIPR (Homo sapiens, UniProt P48546).
T1 construct: expressed in transfected cells
T1 sequence (P48546 22-466): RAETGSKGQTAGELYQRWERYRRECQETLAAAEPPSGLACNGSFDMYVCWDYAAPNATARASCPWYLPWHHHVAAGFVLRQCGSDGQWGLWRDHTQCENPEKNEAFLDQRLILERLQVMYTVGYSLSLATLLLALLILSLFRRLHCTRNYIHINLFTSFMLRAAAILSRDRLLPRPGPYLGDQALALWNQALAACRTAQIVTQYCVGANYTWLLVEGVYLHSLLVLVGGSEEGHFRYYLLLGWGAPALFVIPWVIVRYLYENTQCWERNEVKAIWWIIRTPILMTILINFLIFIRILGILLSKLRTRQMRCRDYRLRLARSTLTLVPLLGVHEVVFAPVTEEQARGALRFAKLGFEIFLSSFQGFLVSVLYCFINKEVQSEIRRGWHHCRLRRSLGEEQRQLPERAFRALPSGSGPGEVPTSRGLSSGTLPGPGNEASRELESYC
In words: In vitro receptor activation reporter assay (CRE-Luc), HEK293-GIPR-CRE. Type of assay: cell-based. For orientation: A reporter such as luciferase makes a cellular process visible.

For the next assay, the target named is T2, human GLP-1R (Homo sapiens, UniProt P43220).
T2 construct: expressed in transfected cells
The experiment in a line: In vitro receptor activation reporter assay (CRE-Luc), HEK293-GLP-1R-CRE. Type of assay: cell-based.

Setting [1] is: unnumbered table (Table 10), average of runs, read-out: GLP1R (nM) [EC50] average.
Where [2] appears, read: unnumbered table (Table 10), run 02/19, read-out: GLP1R (nM) [EC50] 02/19.
Setting [3] is: unnumbered table (Table 10), run 3/25, read-out: GLP1R (nM) [EC50] 3/25.
[4] abbreviates: unnumbered table (Table 10), run 03/26, read-out: GLP1R (nM) [EC50] 03/26.
Setting [5] is: Table 9, read-out: EC50 [nM] GIPR.

T2 sequence (P43220 24-463): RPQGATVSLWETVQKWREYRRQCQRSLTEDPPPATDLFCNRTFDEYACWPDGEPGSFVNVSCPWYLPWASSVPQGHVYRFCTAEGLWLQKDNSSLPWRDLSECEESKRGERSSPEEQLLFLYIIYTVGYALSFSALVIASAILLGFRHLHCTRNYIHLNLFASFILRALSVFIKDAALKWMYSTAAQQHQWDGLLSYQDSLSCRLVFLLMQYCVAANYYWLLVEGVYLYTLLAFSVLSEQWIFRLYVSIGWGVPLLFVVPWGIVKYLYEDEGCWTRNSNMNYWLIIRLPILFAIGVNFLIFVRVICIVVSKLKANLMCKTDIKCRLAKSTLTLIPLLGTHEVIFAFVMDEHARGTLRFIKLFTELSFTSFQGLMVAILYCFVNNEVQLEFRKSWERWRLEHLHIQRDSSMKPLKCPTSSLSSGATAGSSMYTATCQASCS
From the text for human GIPR: HEK293 cells were infected with lentivirus encoding firefly luciferase gene under the control of cAMP responsive element (CRE) promoter (Qiagen, The Netherlands) and then were selected using 1 g mL^−1 puromycin (Life Technologies, Carlsbad) for 1 week. The surviving cells (referred to as CRE-HEK293) were expanded and then transfected with a G418 selective mammalian expression plasmid encoding human GLP-1R or GIPR. In brief, GLP-1R or GIPR plasmid was transfected into CRE-HEK293 cells using Lipofectamine 2000 and selected with 400 g mL^−1 Geneticin (Life Technologies, Carlsbad, CA). Single colony stable cell line overexpressing CRE-luciferase and GLP-1R or GIPR (HEK293-GLP-1R-CRE or HEK293-GIPR-CRE) was then established for in vitro activity assay.
(§1) The EC50 of each peptide was determined using GraphPad Prism 6 software (GraphPad, San Diego, CA).
Method for human GLP-1R: as §1
HEK293 cells were infected with lentivirus encoding firefly luciferase gene under the control of cAMP responsive element (CRE) promoter (Qiagen, The Netherlands) and then were selected using 1 g/mL puromycin (Life Technologies, Carlsbad) for 1 week. The surviving cells (referred to as CRE-HEK293) were expanded and then transfected with a G418 selective mammalian expression plasmid encoding human GLP-1R. In brief, GLP-1R plasmid was transfected into CRE-HEK293 cells using Lipofectamine 2000 and selected with 400 g/mL Geneticin (Life Technologies, Carlsbad, CA). Single colony stable cell line overexpressing CRE-luciferase and GLP1R was then established for in vitro activity assay.

Turning to `CC[C@H](C)[C@H](NC(=O)[C@H](CC(C)C)NC(=O)[C@H](Cc1c[nH]c2ccccc12)NC(=O)[C@@H]1CSCC(=O)NCCN(C(=O)CCC(=O)NCCOCCOCCC(=O)NCCOCCOCCC(=O)NCCCC[C@H](NC(=O)CCCCCCCCCCCCCCCCCCC(=O)O)C(=O)O)CCNC(=O)CSC[C@H](NC(=O)[C@H](CCCCN)NC(=O)[C@H](CC(=O)O)NC(=O)[C@H](CC(C)C)NC(=O)[C@H](Cc2ccc(O)cc2)NC(=O)[C@@H](NC(=O)[C@H](CO)NC(=O)[C@H](Cc2ccc(O)cc2)NC(=O)[C@H](CC(=O)O)NC(=O)[C@H](CC(N)=O)NC(=O)[C@@H](NC(=O)[C@H](Cc2ccc(O)cc2)NC(=O)[C@@H](NC(=O)CNC(=O)[C@H](CCC(=O)O)NC(=O)C(C)(C)NC(=O)[C@@H](N)Cc2ccc(O)cc2)[C@@H](C)O)[C@@H](C)O)[C@@H](C)CC)C(=O)N[C@@H](C)C(=O)N[C@@H](C)C(=O)NC(C)(C)C(=O)N[C@@H](CCC(=O)O)C(=O)N[C@@H](Cc2ccccc2)C(=O)N[C@@H](C(C)C)C(=O)N1)C(=O)N[C@@H](C)C(=O)NCC(=O)NCC(=O)N1CCC[C@H]1C(=O)N[C@@H](CO)C(=O)N[C@@H](CO)C(=O)NCC(=O)N[C@@H](C)C(=O)N1CCC[C@H]1C(=O)N1CCC[C@H]1C(=O)N1CCC[C@H]1C(=O)N[C@@H](CO)C(N)=O` [6Y, 8N, 27I, C(17-24) - C20L5A, YAibEGT-YTNDY-SIYLD-KXAAAib-EFVXW-LIAGG-PSSGA-PPPS-NH2 (where each X is C)] (H-Y[Aib]EGTYTNDYSIYLDKCAA[Aib]EFVCWLIAGGPSSGAPPPS-NH2; linker 17-24 via X2), the EC50 on human GIPR (unnumbered table (Table 10), average of runs, read-out: GIPR (nM) [EC50] average) stood at 2.88 nM; at human GIPR (unnumbered table (Table 10), run 02/19, read-out: GIPR (nM) [EC50] 02/19), 2.48 nM; at human GIPR (unnumbered table (Table 10), run 03/26, read-out: GIPR (nM) [EC50] 03/26), 3.29 nM; on human GLP-1R (setting [1]), 0.08 nM; at human GLP-1R (setting [2]), 0.06 nM; on human GLP-1R (setting [3]), 0.11 nM. In addition, on human GLP-1R (setting [4]), the EC50 turned out to be 0.07 nM.
`CC[C@H](C)[C@H](NC(=O)[C@H](CC(C)C)NC(=O)[C@H](Cc1c[nH]c2ccccc12)NC(=O)[C@@H]1CSCC(=O)NCCN(C(=O)CCC(=O)NCCOCCOCCC(=O)NCCOCCOCCC(=O)NCCCC[C@H](NC(=O)CCCCCCCCCCCCCCCCCCC(=O)O)C(=O)O)CCNC(=O)CSC[C@H](NC(=O)[C@H](CCCCN)NC(=O)[C@H](CC(=O)O)NC(=O)[C@H](CC(C)C)NC(=O)[C@H](Cc2ccc(O)cc2)NC(=O)[C@@H](NC(=O)[C@H](CO)NC(=O)[C@H](Cc2ccc(O)cc2)NC(=O)[C@H](CC(=O)O)NC(=O)[C@H](CO)NC(=O)[C@@H](NC(=O)[C@H](Cc2ccc(O)cc2)NC(=O)[C@@H](NC(=O)CNC(=O)[C@H](CCC(=O)O)NC(=O)C(C)(C)NC(=O)[C@@H](N)Cc2ccc(O)cc2)[C@@H](C)O)[C@@H](C)O)[C@@H](C)CC)C(=O)N[C@@H](C)C(=O)N[C@@H](C)C(=O)NC(C)(C)C(=O)N[C@@H](CCC(=O)O)C(=O)N[C@@H](Cc2ccccc2)C(=O)N[C@@H](C(C)C)C(=O)N1)C(=O)N[C@@H](C)C(=O)NCC(=O)NCC(=O)N1CCC[C@H]1C(=O)N[C@@H](CO)C(=O)N[C@@H](CO)C(=O)NCC(=O)N[C@@H](C)C(=O)N1CCC[C@H]1C(=O)N1CCC[C@H]1C(=O)N1CCC[C@H]1C(=O)N[C@@H](CO)C(N)=O` [6Y, 271, C(17-24) - C20L5A, YAibEGT-YTSDY-SIYLD-KXAAAib-EFVXW-LIAGG-PSSGA-PPPS-NH2 (where each X is C)] (H-Y[Aib]EGTYTSDYSIYLDKCAA[Aib]EFVCWLIAGGPSSGAPPPS-NH2; linker 17-24 via X2): the EC50 at human GLP-1R (setting [1]) is 0.06 nM; on human GLP-1R (setting [2]), 0.05 nM; on human GLP-1R (setting [3]), 0.07 nM; on human GLP-1R (setting [4]), 0.06 nM.
As to `CC[C@H](C)[C@H](NC(=O)[C@H](CC(C)C)NC(=O)[C@H](Cc1c[nH]c2ccccc12)NC(=O)[C@@H]1CSCC(=O)NCCN(C(=O)CCC(=O)NCCOCCOCCC(=O)NCCOCCOCCC(=O)NCCCC[C@H](NC(=O)CCCCCCCCCCCCCCCCCCC(=O)O)C(=O)O)CCNC(=O)CSC[C@H](NC(=O)[C@H](CCCCN)NC(=O)[C@H](CC(=O)O)NC(=O)[C@H](CC(C)C)NC(=O)[C@H](Cc2ccc(O)cc2)NC(=O)[C@@H](NC(=O)[C@H](CO)NC(=O)[C@H](Cc2ccc(O)cc2)NC(=O)[C@H](CC(=O)O)NC(=O)[C@H](CO)NC(=O)[C@@H](NC(=O)[C@H](Cc2ccccc2)NC(=O)[C@@H](NC(=O)CNC(=O)[C@H](CCC(=O)O)NC(=O)C(C)(C)NC(=O)[C@@H](N)Cc2ccc(O)cc2)[C@@H](C)O)[C@@H](C)O)[C@@H](C)CC)C(=O)N[C@@H](C)C(=O)N[C@@H](CCC(N)=O)C(=O)NC(C)(C)C(=O)N[C@@H](C)C(=O)N[C@@H](Cc2ccccc2)C(=O)N[C@@H](C(C)C)C(=O)N1)C(=O)N[C@@H](C)C(=O)N[C@@H](CCC(N)=O)C(=O)NCC(=O)N1CCC[C@H]1C(=O)N[C@@H](CO)C(=O)N[C@@H](CO)C(=O)NCC(=O)N[C@@H](C)C(=O)N1CCC[C@H]1C(=O)N1CCC[C@H]1C(=O)N1CCC[C@H]1C(=O)N[C@@H](CO)C(N)=O` [19Q, 21A, 27I, 29Q, C(17-24) - C20L5A, YAibEGT-FTSDY-SIYLD-KXAQAib-AFVXW-LIAQG-PSSGA-PPPS-NH2 (where each X is C)], the EC50 at human GIPR (setting [5]) turned out to be 0.02 nM.
`CC[C@H](C)[C@H](NC(=O)[C@H](CO)NC(=O)[C@H](Cc1ccc(O)cc1)NC(=O)[C@H](CC(=O)O)NC(=O)[C@H](CO)NC(=O)[C@@H](NC(=O)[C@H](Cc1ccccc1)NC(=O)[C@@H](NC(=O)CNC(=O)[C@H](CCC(=O)O)NC(=O)C(C)(C)NC(=O)[C@@H](N)Cc1ccc(O)cc1)[C@@H](C)O)[C@@H](C)O)C(=O)N[C@@H](Cc1ccc(O)cc1)C(=O)N[C@H]1CSCC(=O)NCCN(C(=O)CCC(=O)NCCOCCOCCC(=O)NCCOCCOCCC(=O)NCCCC[C@H](NC(=O)CCCCCCCCCCCCCCCCC(=O)O)C(=O)O)CCNC(=O)CSC[C@@H](C(=O)N[C@@H](Cc2ccccc2)C(=O)N[C@H](C(=O)N[C@@H](CC(N)=O)C(=O)N[C@@H](Cc2c[nH]c3ccccc23)C(=O)N[C@@H](CC(C)C)C(=O)N[C@@H](CC(C)C)C(=O)N[C@@H](C)C(=O)NCC(=O)NCC(=O)N2CCC[C@H]2C(=O)N[C@@H](CO)C(=O)N[C@@H](CO)C(=O)NCC(=O)N[C@@H](C)C(=O)N2CCC[C@H]2C(=O)N2CCC[C@H]2C(=O)N2CCC[C@H]2C(=O)N[C@@H](CO)C(N)=O)C(C)C)NC(=O)C(C)(C)NC(=O)[C@H](C)NC(=O)[C@H](C)NC(=O)[C@H](CCC(N)=O)NC(=O)[C@H](CCCCN)NC(=O)[C@H](CC(=O)O)NC1=O` [C(14-21) - L5A, YAibEGT-FTSDY-SIYXD-KQAAAib-XFVNW-LLAGG-PSSGA-PPPS-NH2 (where each X is C)]: the EC50 was found to be 0.03 nM at human GIPR (Table 8, read-out: EC50 [nM] GIPR) and 0.03 nM at human GIPR (setting [5]).
In the case of `CC[C@H](C)[C@H](NC(=O)[C@H](CO)NC(=O)[C@H](Cc1ccc(O)cc1)NC(=O)[C@H](CC(=O)O)NC(=O)[C@H](CO)NC(=O)[C@@H](NC(=O)[C@H](Cc1ccccc1)NC(=O)[C@@H](NC(=O)CNC(=O)[C@H](CCC(=O)O)NC(=O)C(C)(C)NC(=O)[C@@H](N)Cc1ccc(O)cc1)[C@@H](C)O)[C@@H](C)O)C(=O)N[C@@H](Cc1ccc(O)cc1)C(=O)N[C@H]1CCCCNC(=O)CN(C(=O)CCNC(=O)CCOCCOCCNC(=O)CCOCCOCCNC(=O)CC[C@H](NC(=O)CCCCCCCCCCCCCCCCC(=O)O)C(=O)O)CC(=O)NCCCC[C@@H](C(=O)N[C@@H](Cc2ccccc2)C(=O)N[C@H](C(=O)N[C@@H](CC(N)=O)C(=O)N[C@@H](Cc2c[nH]c3ccccc23)C(=O)N[C@@H](CC(C)C)C(=O)N[C@@H](CC(C)C)C(=O)N[C@@H](C)C(=O)NCC(=O)NCC(=O)N2CCC[C@H]2C(=O)N[C@@H](CO)C(=O)N[C@@H](CO)C(=O)NCC(=O)N[C@@H](C)C(=O)N2CCC[C@H]2C(=O)N2CCC[C@H]2C(=O)N2CCC[C@H]2C(=O)N[C@@H](CO)C(N)=O)C(C)C)NC(=O)C(C)(C)NC(=O)[C@H](C)NC(=O)[C@H](C)NC(=O)[C@H](CCC(N)=O)NC(=O)[C@H](CCCCN)NC(=O)[C@H](CC(=O)O)NC1=O` [mCLZ715, YAibEGT-FTSDY-SIYXD-KQAAAib-XFVNW-LLAGG-PSSGA-PPPS-NH2 (where each X is K)], the EC50 on human GLP-1R (Table 7, read-out: EC50 [nM] GLP1R) came out at 0.02 nM.
